Test system: PMA-stimulated THP-1 cells
Assay: Phagocytosis of opsonized zymosan bioparticles in PMA-stimulated THP-1 cells (fluorescence)
Assay type: cell-based, human
Conditions: oils diluted 1/10^3; Mar-1 at 1 nM; 15 min pretreatment, 60 min incubation with zymosan
Description: To determine the capacity of promoting a macrophage pro-resolution phenotype (i.e. M2) and therefore to foster the resolution of inflammation, several oils were tested in a human macrophage model adapted by López Vicario C from a method previously described (Titos et al., 2011) and compared with Mar-1 (the term Maresins is coined from Macrophage mediator in resolving inflammation), an established active compound in resolution of the inflammation.
THP-1 cells were cultured in a 96-well black plate at a density of 3.5×10^4 cells/well in 200 μl RPMI 1640 medium (10% FBS). […]
The compounds tested in this macrophage model were: • Maresin 1 (from Cayman Chemicals) • LM03-1 (a total amount of Omega-3 of about 629.9 mg/g (as FFA), DHA in an amount of about 342.1 mg/g (as FFA), EPA in an amount of about 187.6 mg/g (as FFA), 17-HDHA in an amount of about 60.8 mg/kg and 18-HEPE in an amount of about 87.5 mg/kg with 1.4 mg/g of a mixed natural tocopherols—3624 EE (about 33.0% EPA ethyl ester and about 22% DHA in ethyl ester form expressed as FFA) • Omacor (about 42.5% EPA ethyl ester and about 34.5% DHA in ethyl ester form expressed as FFA)
The concentration of Mar-1 used in the experiment was 1 nM, which has been determined the concentration with maximum activity in phagocytic activation for this compound in previous experiments using this model (data not shown). […]

CC/C=C\C/C=C\C[C@H](O)/C=C/C=C/C=C/[C@H](O)C/C=C\CCC(=O)O [Maresin-1, 7R,14S-dihydroxy-4Z,8E,10E,12E,16Z,19Z-docosahexaenoic acid]
phagocytic activity relative to Mar-1 (100% assigned to Mar-1 1 nM): 100%

Reference: US11833158B2, “Compositions comprising omega-3 fatty acids, 17-HDHA and 18-HEPE and methods of using same” (Solutex NA LLC, priority 2015, dated 2023)
